Several values for one entry are separate records, joined by “and”; a condition that tells them apart may be missing. Equal entries are not always repeated. Where two headings read alike, the source gives them in different places.
How the values were obtained:
[1] = tested on: human HBCx-34 breast tumor xenograft; test: Antitumor efficacy in HBCx-34 patient-derived breast cancer xenograft (study XTS-1521); assay type: in vivo, mouse
Procedure: Antitumor efficacy of an HER2/HER3 targeting antibody was determined in the context of a combination treatment together with an aromatase inhibitor. […] It was used as single agent and in combination with the aromatase inhibitor Letrozole. The hormone-dependent HBCx-34 patient-derived breast cancer xenograft model established in immunodeficient mice was used as an example of a breast cancer.
The HBCx-34 PDX model was derived from a treatment-naïve primary breast infiltrating ductal carcinoma.
Tumor-bearing mice received estrogen diluted in drinking water (β-oestradiol, 8.5 mg/l), from the date of tumor implant to the date of inclusion. During the treatment period, mice were not supplemented with estrogen.
Tumors of the same passage were transplanted subcutaneously onto 6-24 mice (donor mice, passage (n−1)). When these tumors reached 1000 to 2000 mm^3, donor mice were sacrificed by cervical dislocation, tumors were aseptically excised and dissected. After removing necrotic areas, tumors were cut into fragments measuring approximately 20 mm^3 and transferred in culture medium before grafting.
95 mice were anaesthetized with 100 mg/kg ketamine hydrochloride (batch 5D92, Exp: 2017/03, Virbac) and 10 mg/kg xylazine (batch KP0AX9X, Exp: 2017/08, Bayer), and then skin was aseptized with a chlorhexidine solution, incised at the level of the interscapular region, and a 20 mm^3 tumor fragment was placed in the subcutaneous tissue. Skin was closed with clips. All mice from the same experiment were implanted on the same day.
Treatments were randomly attributed to boxes housing up to 5 mice and were initiated 36 days post implantation of the tumor (42% inclusion rate). The study was terminated following 57 days after the start of treatment.
Tumor volume was evaluated by measuring tumor diameters, with a calliper, biweekly during the experimental period.
The formula TV (mm3)=[length (mm)×width (mm)2]/2 was used, where the length and the width are the longest and the shortest diameters of the tumor, respectively.
A total of 4 groups were used as summarized in the scheme below. Each group initially included 10 mice.
All treatment doses were body weight adjusted at each injection.

HBCx-34 tumors = test: In vivo growth characteristics of the HBCx-34 PDX model (FIG. 4); design: species or system mouse; conditions: animals that did not receive estrogens, vs vehicle
Procedure: FIG. 4. In vivo growth characteristics of the HBCx-34 PDX model. A, IHC characteristics of HBCx-34 PDX tumors. B, Athymic nude mice were engrafted s.c. with HBCx-34 tumors. […] T-tests were performed to compare tumor volumes from estrogen-independent tumors treated with vehicle or Letrozole (*, p<0.05, **, p<0.01, ***, p<0.001).

HBCx-34 PDX model = conditions: model characterisation; cited from earlier work
[2] = MCLA-128 25 mg/kg IP, Letrozole […] PO qdx57
[3] = MCLA-128 25 mg/kg i.p., Letrozole […] p.o. qdx57, day of maximum as in text

What does the source list for `N#Cc1ccc(C(c2ccc(C#N)cc2)n2cncn2)cc1` [Letrozole]?
Mann-Whitney test on tumor volume ([1]; DAY 25, vs vehicle group): * (* = P < 0.05); Mann-Whitney test on tumor volume ([1]; DAY 28, vs vehicle group): * (* = P < 0.05); Dunn's Multiple Comparison Test on tumor volume ([1]; DAY 32, vs MCLA-128 25): * (* = P < 0.05); Mann-Whitney test on tumor volume ([1]; DAY 32, vs vehicle group): ** (** = P < 0.01); Dunn's Multiple Comparison Test on tumor volume ([1]; DAY 35, vs MCLA-128 25): ** (** = P < 0.01); Dunn's Multiple Comparison Test on tumor volume ([1]; DAY 35, vs Vehicle MCLA-128): * (* = P < 0.05); Mann-Whitney test on tumor volume ([1]; DAY 35, vs vehicle group): *** (*** = P < 0.001); Dunn's Multiple Comparison Test on tumor volume ([1]; DAY 39, vs MCLA-128 25): ** (** = P < 0.01); Dunn's Multiple Comparison Test on tumor volume ([1]; DAY 39, vs Vehicle MCLA-128): * (* = P < 0.05); Mann-Whitney test on tumor volume ([1]; DAY 39, vs vehicle group): *** (*** = P < 0.001); Dunn's Multiple Comparison Test on tumor volume ([1]; DAY 42, vs MCLA-128 25): ** (** = P < 0.01); Dunn's Multiple Comparison Test on tumor volume ([1]; DAY 42, vs Vehicle MCLA-128): * (* = P < 0.05); Mann-Whitney test on tumor volume ([1]; DAY 42, vs vehicle group): *** (*** = P < 0.001); Dunn's Multiple Comparison Test on tumor volume ([1]; DAY 46, vs MCLA-128 25): ** (** = P < 0.01); Dunn's Multiple Comparison Test on tumor volume ([1]; DAY 46, vs Vehicle MCLA-128): * (* = P < 0.05); Mann-Whitney test on tumor volume ([1]; DAY 46, vs vehicle group): *** (*** = P < 0.001); Dunn's Multiple Comparison Test on tumor volume ([1]; DAY 49, vs MCLA-128 25): ** (** = P < 0.01); Dunn's Multiple Comparison Test on tumor volume ([1]; DAY 49, vs Vehicle MCLA-128): * (* = P < 0.05); Mann-Whitney test on tumor volume ([1]; DAY 49, vs vehicle group): *** (*** = P < 0.001); Dunn's Multiple Comparison Test on tumor volume ([1]; DAY 53, vs MCLA-128 25): ** (** = P < 0.01); Dunn's Multiple Comparison Test on tumor volume ([1]; DAY 53, vs Vehicle MCLA-128): * (* = P < 0.05); Mann-Whitney test on tumor volume ([1]; DAY 53, vs vehicle group): *** (*** = P < 0.001); Dunn's Multiple Comparison Test on tumor volume ([1]; DAY 56, vs MCLA-128 25): ** (** = P < 0.01); Dunn's Multiple Comparison Test on tumor volume ([1]; DAY 56, vs Vehicle MCLA-128): * (* = P < 0.05); Mann-Whitney test on tumor volume ([1]; DAY 56, vs vehicle group): *** (*** = P < 0.001); Best T/C % [1, 2]: 18.68%; Best TGE % [1, 2]: 145.70%; T/C % (at control group day end) [1, 2]: 18.68%; TGI % (at control group day end) [1, 2]: 121.97%; median TGD × 3 (In days) [1, 2]: >56 days; tumor growth inhibition (in words) ([1]; MCLA-128 25 mg/kg i.p., Letrozole […] p.o. qdx57): statistically significant tumor growth inhibition; Mann-Whitney test on tumor volume: STAT ([1]; STAT column, vs vehicle group): *** (*** = P < 0.001); TFS (Tumor Free Survivor) ([1]; number of complete regressions recorded up to Group Day End): 1; CR (complete regression) ([1]; number of mice with 0 to 14 mm^3 tumor size during at least 3 consecutive measurements): 1/10 and 1; TS (Tumor Stabilization) ([1]; number of mice with constant tumor size during at least 6 consecutive measurements): 1; PR (partial regression) ([1]; number of mice with tumor size lower than initial during at least 6 consecutive measurements): 7/10 and 7; p compared to the group control by Dunn's test ([1]; tumor growth inhibition): < 0.05; p compared with the vehicle group, Mann Whitney test ([1]; tumor growth inhibition): < 0.001; formation of estrogen-independent tumors (HBCx-34 tumors): significantly reduced the formation of estrogen-independent tumors; Dunn's Multiple Comparison Test on relative body weight (DAY 25, vs MCLA-128 25): * (* = P < 0.05); Dunn's Multiple Comparison Test on relative body weight (DAY 28, vs Vehicle MCLA-128): * (* = P < 0.05); Dunn's Multiple Comparison Test on relative body weight (DAY 32, vs MCLA-128 25): ** (** = P < 0.01); Dunn's Multiple Comparison Test on relative body weight (DAY 32, vs Vehicle MCLA-128): ** (** = P < 0.01); Dunn's Multiple Comparison Test on relative body weight (DAY 35, vs MCLA-128 25): * (* = P < 0.05); Dunn's Multiple Comparison Test on relative body weight (DAY 35, vs Vehicle MCLA-128): ** (** = P < 0.01); Dunn's Multiple Comparison Test on relative body weight (DAY 39, vs MCLA-128 25): ** (** = P < 0.01); Dunn's Multiple Comparison Test on relative body weight (DAY 39, vs Vehicle MCLA-128): ** (** = P < 0.01); Dunn's Multiple Comparison Test on relative body weight (DAY 42, vs Vehicle MCLA-128): ** (** = P < 0.01); Dunn's Multiple Comparison Test on relative body weight (DAY 46, vs MCLA-128 25): ** (** = P < 0.01); Dunn's Multiple Comparison Test on relative body weight (DAY 46, vs Vehicle MCLA-128): ** (** = P < 0.01); Dunn's Multiple Comparison Test on relative body weight (DAY 49, vs MCLA-128 25): ** (** = P < 0.01); Dunn's Multiple Comparison Test on relative body weight (DAY 49, vs Vehicle MCLA-128): ** (** = P < 0.01); Dunn's Multiple Comparison Test on relative body weight (DAY 53, vs MCLA-128 25): ** (** = P < 0.01); Dunn's Multiple Comparison Test on relative body weight (DAY 53, vs Vehicle MCLA-128): ** (** = P < 0.01); Dunn's Multiple Comparison Test on relative body weight (DAY 56, vs MCLA-128 25): ** (** = P < 0.01); Dunn's Multiple Comparison Test on relative body weight (DAY 56, vs Vehicle MCLA-128): ** (** = P < 0.01); maximum individual body weight loss [3]: 4.1%; maximum mean body weight loss [3]: no mean body weight loss; response of the HBCx-34 PDX model (HBCx-34 PDX model): low responder

— US12195551B2, “Combination of an ErbB-2/ErbB-3 bispecific antibody with endocrine therapy for breast cancer” (Merus N.V., priority 2017, dated 2025)
